{"source": "ChEMBL document CHEMBL5346919", "about": "“Toward anthelmintic drug candidates for toxocariasis: Challenges and recent developments” (2023)", "type_in_all_cases": "functional", "key": {"Toxocara cati [1]": {"tested_on": "Toxocara cati", "assay": "Antiparasitic activity against Toxocara cati infected in cat assessed as worm burden reduction at 50 mg/kg, po measured after 2 days", "design": "scale not given: the % may be the effect or the level left", "settings": "time 2 day"}, "Toxocara cati [2]": {"tested_on": "Toxocara cati", "assay": "Antiparasitic activity against Toxocara cati infected in cat assessed as worm burden reduction at 25 mg/kg,po measured after 3 days", "design": "scale not given: the % may be the effect or the level left", "settings": "time 3 day"}, "Toxocara canis [3]": {"tested_on": "Toxocara canis", "assay": "Antiparasitic activity against Toxocara canis infected in dog assessed as egg burden reduction at 50 mg/kg,po measured after 3 days", "design": "scale not given: the % may be the effect or the level left", "settings": "time 3 day"}, "Toxocara canis [4]": {"tested_on": "Toxocara canis", "assay": "Antiparasitic activity against Toxocara canis assessed as larvicidal activity at 1100 uM measured after 48 hrs relative to control"}, "Toxocara canis [5]": {"tested_on": "Toxocara canis", "assay": "Antiparasitic activity against Toxocara canis assessed as larvicidal activity at 192 uM measured after 48 hrs relative to control"}, "Toxocara canis [6]": {"tested_on": "Toxocara canis", "assay": "Antiparasitic activity against Toxocara canis assessed as relative mobility"}, "Toxocara canis [7]": {"tested_on": "Toxocara canis", "assay": "Antiparasitic activity against Toxocara canis j2 larvae assessed as relative mobility at 18 uM measured after 48 hrs"}, "Toxocara canis [8]": {"tested_on": "Toxocara canis", "assay": "Antiparasitic activity against Toxocara canis infected in mouse assessed as worm burden reduction in brain at 25 mg/kg,sc administered twice a day for 5 days relative to control", "design": "scale not given: the % may be the effect or the level left", "settings": "time 5 day"}, "Toxocara canis [9]": {"tested_on": "Toxocara canis", "assay": "Antiparasitic activity against Toxocara canis infected in mouse assessed as worm burden reduction in brain at 25 mg/kg,po or sc administered twice a day for 5 days relative to control", "design": "scale not given: the % may be the effect or the level left", "settings": "time 5 day"}, "Toxocara canis [10]": {"tested_on": "Toxocara canis", "assay": "Antiparasitic activity against Toxocara canis infected in mouse assessed as worm burden reduction in muscles at 25 mg/kg,sc administered twice a day for 5 days relative to control", "design": "scale not given: the % may be the effect or the level left", "settings": "time 5 day"}, "Toxocara canis [11]": {"tested_on": "Toxocara canis", "assay": "Antiparasitic activity against Toxocara canis infected in mouse assessed as worm burden reduction in brain at 100 mg/kg,po administered twice a day for 5 days relative to control", "design": "scale not given: the % may be the effect or the level left", "settings": "time 5 day"}, "Toxocara canis [12]": {"tested_on": "Toxocara canis", "assay": "Antiparasitic activity against Toxocara canis infected in mouse assessed as worm burden reduction in muscles at 350 mg/kg,sc administered twice a day relative to control", "design": "scale not given: the % may be the effect or the level left"}, "Toxocara canis [13]": {"tested_on": "Toxocara canis", "assay": "Antiparasitic activity against Toxocara canis infected in mouse assessed as worm burden reduction in brain at 150 mg/kg,sc administered twice a day relative to control", "design": "scale not given: the % may be the effect or the level left"}, "Toxocara canis [14]": {"tested_on": "Toxocara canis", "assay": "Antiparasitic activity against Toxocara canis assessed as relative mobility at 1 to 10000 uM measured after 24 hrs by", "settings": "dose 1-10000 µM, read-out: ED50 (the source's name)"}, "Toxocara canis [15]": {"tested_on": "Toxocara canis", "assay": "Antiparasitic activity against Toxocara canis infected in mouse assessed as worm burden reduction in muscles at 25 mg/kg,po or sc administered twice a day for 5 days relative to control", "design": "scale not given: the % may be the effect or the level left", "settings": "time 5 day"}, "Toxocara vitulorum [16]": {"tested_on": "Toxocara vitulorum", "assay": "Antiparasitic activity against Toxocara vitulorum infected in assessed as decrease in number of larvae in liver at 40 mg/kg,po measured after 7 days", "settings": "168 h, time 7 day"}, "Toxocara vitulorum [17]": {"tested_on": "Toxocara vitulorum", "assay": "Antiparasitic activity against Toxocara vitulorum infected in assessed as decrease in number of larvae in lung at 40 mg/kg,po measured after 7 days", "settings": "168 h, time 7 day"}}}
{"smiles": "O=C(Nc1ccc(N=C=S)cc1Cl)c1cc(Br)cc(Br)c1O", "values": [{"measurement": "Activity", "setting": "Toxocara cati [1]", "value": 100, "unit": "%"}, {"measurement": "Activity", "setting": "Toxocara cati [2]", "value": 100, "unit": "%"}, {"measurement": "Activity", "setting": "Toxocara canis [3]", "value": 100, "unit": "%"}]}
{"smiles": "CC1(C)CCC2=C(O1)C1(CO1)C1=C(CCCC1)C2=O", "note": "(stereo not given)", "values": [{"measurement": "Activity", "setting": "Toxocara canis [4]", "value": 100, "unit": "%"}]}
{"smiles": "C=CCOC1=CC(=O)c2ccccc2C12CO2", "note": "(stereo not given)", "values": [{"measurement": "Activity", "setting": "Toxocara canis [4]", "value": 100, "unit": "%"}]}
{"smiles": "O=C1C(Cl)=C(Cl)C2(CO2)c2ccccc21", "note": "(stereo not given)", "values": [{"measurement": "Activity", "setting": "Toxocara canis [4]", "value": 100, "unit": "%"}]}
{"smiles": "CC1(C)CCC2=C(O1)C1(CO1)c1ccccc1C2=O", "note": "(stereo not given)", "values": [{"measurement": "Activity", "setting": "Toxocara canis [4]", "value": 100, "unit": "%"}, {"measurement": "Activity", "setting": "Toxocara canis [5]", "value": 100, "unit": "%"}]}
{"smiles": "CC1(C)CC2=C(O1)C1(CO1)c1ccccc1C2=O", "note": "(stereo not given)", "values": [{"measurement": "Activity", "setting": "Toxocara canis [4]", "value": 100, "unit": "%"}]}
{"smiles": "OCCCC1NCCc2c1[nH]c1ccccc21", "note": "(stereo not given)", "values": [{"measurement": "ED", "setting": "Toxocara canis [6]", "value": 59.9, "unit": "µM"}]}
{"smiles": "CCCSc1ccc2c(c1)nc(NC(=O)OC)n2COC(C)=O", "values": [{"measurement": "Activity", "setting": "Toxocara canis [7]", "value": 30, "unit": "%"}]}
{"smiles": "CCCSc1ccc2[nH]c(NC(=O)OC)nc2c1", "note": "[ALBENDAZOLE]", "values": [{"measurement": "Activity", "setting": "Toxocara canis [8]", "value": 92.2, "unit": "%"}, {"measurement": "Activity", "setting": "Toxocara canis [9]", "value": 66.1, "unit": "%"}, {"measurement": "Activity", "setting": "Toxocara canis [10]", "value": 70, "unit": "%"}, {"measurement": "Activity", "setting": "Toxocara canis [11]", "value": 100, "unit": "%"}, {"measurement": "Activity", "setting": "Toxocara canis [12]", "value": 37.5, "unit": "%"}, {"measurement": "Activity", "setting": "Toxocara canis [13]", "value": 54.2, "unit": "%"}]}
{"smiles": "COc1ccc2c(c1OC)CN(C)CCc1cc3c(cc1C(=O)C2)OCO3", "note": "[ALLOCRYPTOPINE]", "values": [{"measurement": "EC50", "setting": "Toxocara canis [14]", "value": 349, "unit": "µM"}]}
{"smiles": "COc1cc2c(cc1OC)-c1c(C)c3ccc(OC)c(OC)c3c[n+]1CC2", "note": "[DEHYDROCORYDALINE]", "values": [{"measurement": "EC50", "setting": "Toxocara canis [14]", "value": 295, "unit": "µM"}]}
{"smiles": "COC(=O)Nc1nc2cc(Sc3ccccc3)ccc2[nH]1", "note": "[FENBENDAZOLE]", "values": [{"measurement": "Activity", "setting": "Toxocara canis [8]", "value": 44.7, "unit": "%"}, {"measurement": "Activity", "setting": "Toxocara canis [15]", "value": 89.5, "unit": "%"}, {"measurement": "Activity", "setting": "Toxocara canis [10]", "value": 55.7, "unit": "%"}]}
{"smiles": "COc1ccc(Cc2nccc3cc(OC)c(OC)cc23)cc1OC", "note": "[PAPAVERINE]", "values": [{"measurement": "EC50", "setting": "Toxocara canis [14]", "value": 250, "unit": "µM"}]}
{"smiles": "Cc1ccc(C(C)C)c(O)c1", "note": "[THYMOL]", "values": [{"measurement": "inhibition in vivo at 40 mg/kg", "setting": "Toxocara vitulorum [16]", "value": 58.5, "unit": "%"}, {"measurement": "inhibition in vivo at 40 mg/kg", "setting": "Toxocara vitulorum [17]", "value": 66.7, "unit": "%"}]}
